Laboratory results as given in ChEMBL document CHEMBL1201862, “PubChem BioAssay data set” (2004).
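Grown in 96-well plates, cells were treated for 48 hours with each compound at five concentrations. Insufficient inhibition: endpoint recorded as highest concentration tested. At the GI50, growth is halved.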 Calls of active or inactive are those of the source. No stated cut-off is given here; in the data, active = GI50 up to about 1.1 µM and inactive = higher.

Key:
Assay in all cases: NCI anticancer screen, dose series, 48 h
[1] = test system: 786-0
[2] = test system: A498
[3] = test system: A549
[4] = test system: ACHN
[5] = test system: BT-549
[6] = test system: CAKI-1
[7] = test system: COLO 205
[8] = test system: DU-145
[9] = test system: EKVX
[10] = test system: HCC 2998
[11] = test system: HCT-116
[12] = test system: HCT-15
[13] = test system: HOP-62
[14] = test system: KM12
[15] = test system: M14
[16] = test system: MDA-MB-231
[17] = test system: MDA-N
[18] = test system: NCI-H226
[19] = test system: NCI-H460
[20] = test system: NCI/ADR-RES
[21] = test system: OVCAR-3
[22] = test system: OVCAR-4
[23] = test system: OVCAR-5
[24] = test system: OVCAR-8
[25] = test system: PC-3
[26] = test system: SF-295
[27] = test system: SF-539
[28] = test system: SK-MEL-28
[29] = test system: SK-MEL-5
[30] = test system: SN12C
[31] = test system: SNB-19
[32] = test system: SNB-75
[33] = test system: SR
[34] = test system: SW-620
[35] = test system: U-251
[36] = test system: UACC-257
[37] = test system: UACC-62
[38] = test system: UO-31
[39] = test system: CCRF-CEM
[40] = test system: HOP-92
[41] = test system: HT-29
[42] = test system: Hs-578T
[43] = test system: IGROV-1
[44] = test system: K562
[45] = test system: MCF7
[46] = test system: MDA-MB-435
[47] = test system: MOLT-4
[48] = test system: Malme-3M
[49] = test system: NCI-H23
[50] = test system: NCI-H522
[51] = test system: RPMI-8226
[52] = test system: RXF 393
[53] = test system: SK-MEL-2
[54] = test system: SK-OV-3
[55] = test system: TK-10
[56] = test system: HL-60
[57] = test system: LOX IMVI
[58] = test system: SF-268

For CC1=CCC[C@H]2[C@](C)(CC3=CC(=O)C(Sc4ccccc4)=CC3=O)[C@@H](C)CC[C@]12C, the GI50 [1] was 18.2 µM (inactive), the GI50 [2] was 19.9 µM (inactive) and the GI50 [3] was 17.5 µM (inactive). For the same molecule, the GI50 [4] was 19.2 µM (inactive), the GI50 [5] was 19.5 µM (inactive) and the GI50 [6] was 17.1 µM (inactive). For the same molecule, the GI50 [7] was 14.5 µM (inactive), the GI50 [8] was 22.5 µM (inactive) and the GI50 [9] was 20.2 µM (inactive). The GI50 [10] was 20.4 µM (inactive), the GI50 [11] was 16.6 µM (inactive) and the GI50 [12] was 19.2 µM. For the same molecule, the GI50 [13] was 16.9 µM (inactive), the GI50 [14] was 41.6 µM (inactive) and the GI50 [15] was 16.7 µM (inactive). The GI50 [16] was 21.4 µM (inactive), the GI50 [17] was 18.5 µM (inactive) and the GI50 [18] was 14.7 µM (inactive). For the same molecule, the GI50 [19] was 20 µM (inactive), the GI50 [20] was 17.1 µM (inactive) and the GI50 [21] was 16.6 µM (inactive). For the same molecule, the GI50 [22] was 19.7 µM (inactive), the GI50 [23] was 17.1 µM (inactive) and the GI50 [24] was 13.6 µM (inactive). The GI50 [25] was 23 µM (inactive), the GI50 [26] was 17.3 µM (inactive) and the GI50 [27] was 19.8 µM (inactive). For the same molecule, the GI50 [28] was 20.9 µM (inactive), the GI50 [29] was 17.2 µM (inactive) and the GI50 [30] was 17.7 µM (inactive). For the same molecule, the GI50 [31] was 20.5 µM (inactive), the GI50 [32] was 20.4 µM (inactive) and the GI50 [33] was 21.8 µM (inactive). For the same molecule, the GI50 [34] was 16.9 µM (inactive), the GI50 [35] was 18.1 µM (inactive) and the GI50 [36] was 15.9 µM (inactive). For the same molecule, the GI50 [37] was 21.7 µM (inactive) and the GI50 [38] was 15.7 µM (inactive).

For C[n+]1c(-c2ccc(/C=N/Nc3ccnc(N/N=C/c4ccc(-c5cn6ccsc6[n+]5C)cc4)n3)cc2)cn2ccsc21, the GI50 [1] was 15.8 µM (inactive), the GI50 [2] was 27.9 µM (inactive) and the GI50 [3] was 28.6 µM (inactive). The GI50 [4] was 23.9 µM (inactive), the GI50 [5] was 36.1 µM (inactive) and the GI50 [6] was 18.5 µM (inactive). For the same molecule, the GI50 [39] was 14.9 µM (inactive), the GI50 [7] was 35.4 µM (inactive) and the GI50 [8] was 27.7 µM (inactive). For the same molecule, the GI50 [9] was 18.8 µM (inactive), the GI50 [10] was 31.6 µM (inactive) and the GI50 [12] was 27.5 µM. For the same molecule, the GI50 [13] was 25.9 µM (inactive), the GI50 [40] was 31.5 µM (inactive) and the GI50 [41] was 16.9 µM (inactive). The GI50 [42] was 69.5 µM (inactive), the GI50 [43] was 19.1 µM (inactive) and the GI50 [44] was 12.1 µM (inactive). For the same molecule, the GI50 [14] was 22.1 µM (inactive), the GI50 [15] was 8.81 µM (inactive) and the GI50 [45] was 48.4 µM (inactive). For the same molecule, the GI50 [16] was 32.7 µM (inactive), the GI50 [46] was 4.57 µM (inactive) and the GI50 [17] was 3.94 µM (inactive). For the same molecule, the GI50 [47] was 17.8 µM (inactive), the GI50 [48] was 29.9 µM (inactive) and the GI50 [18] was 17.7 µM (inactive). For the same molecule, the GI50 [49] was 22.9 µM (inactive), the GI50 [19] was 16.9 µM (inactive) and the GI50 [50] was 92.7 µM (inactive). For the same molecule, the GI50 [20] was 39.7 µM (inactive), the GI50 [21] was > 100 µM (inactive) and the GI50 [22] was 51.9 µM (inactive). The GI50 [23] was 19.1 µM (inactive), the GI50 [24] was 28.9 µM (inactive) and the GI50 [25] was 30.2 µM (inactive). The GI50 [51] was 8.61 µM (inactive), the GI50 [52] was 21.5 µM (inactive) and the GI50 [27] was 27 µM (inactive). For the same molecule, the GI50 [53] was 29.8 µM (inactive), the GI50 [29] was 19.3 µM (inactive) and the GI50 [54] was > 100 µM (inactive). For the same molecule, the GI50 [30] was 31.5 µM (inactive), the GI50 [31] was 32.8 µM (inactive) and the GI50 [32] was 20 µM (inactive). For the same molecule, the GI50 [33] was 11.3 µM (inactive), the GI50 [34] was 33 µM (inactive) and the GI50 [55] was 25.8 µM (inactive). For the same molecule, the GI50 [35] was 30.9 µM (inactive), the GI50 [36] was 25.5 µM (inactive) and the GI50 [37] was 25.1 µM (inactive). For the same molecule, the GI50 [38] was 18.8 µM (inactive).

In the case of OC1(c2cc3ccccc3s2)CCCCC1, the GI50 [1] is reported as 34 µM (inactive), the GI50 [2] is reported as 43.2 µM (inactive) and the GI50 [3] is reported as 40.8 µM (inactive). For the same molecule, the GI50 [4] was 69 µM (inactive), the GI50 [5] was 55.7 µM (inactive) and the GI50 [6] was > 100 µM (inactive). The GI50 [39] was 21.4 µM (inactive), the GI50 [7] was 19.9 µM (inactive) and the GI50 [8] was 63.2 µM (inactive). For the same molecule, the GI50 [9] was 33.6 µM (inactive), the GI50 [10] was 76 µM (inactive) and the GI50 [11] was 33.3 µM (inactive). The GI50 [12] was 39.1 µM, the GI50 [56] was 37.7 µM (inactive) and the GI50 [13] was > 100 µM (inactive). The GI50 [40] was 18 µM (inactive), the GI50 [41] was 23.7 µM (inactive) and the GI50 [42] was 28.5 µM (inactive). For the same molecule, the GI50 [43] was 87.5 µM (inactive), the GI50 [44] was 34.4 µM (inactive) and the GI50 [14] was 41.3 µM (inactive). For the same molecule, the GI50 [57] was 45.8 µM (inactive), the GI50 [15] was 66.8 µM (inactive) and the GI50 [45] was 36.6 µM (inactive). The GI50 [16] was 30.8 µM (inactive), the GI50 [46] was 46.8 µM (inactive) and the GI50 [17] was 38.4 µM (inactive). For the same molecule, the GI50 [47] was 25.8 µM (inactive), the GI50 [18] was 80.9 µM (inactive) and the GI50 [49] was 46.6 µM (inactive). The GI50 [19] was 44.2 µM (inactive), the GI50 [50] was 28.1 µM (inactive) and the GI50 [20] was 47.2 µM (inactive). For the same molecule, the GI50 [21] was 30.1 µM (inactive), the GI50 [22] was 39.2 µM (inactive) and the GI50 [23] was 40.8 µM (inactive). For the same molecule, the GI50 [24] was 42.6 µM (inactive), the GI50 [52] was 39.4 µM (inactive) and the GI50 [58] was 29.2 µM (inactive). For the same molecule, the GI50 [26] was 37.9 µM (inactive), the GI50 [27] was > 100 µM (inactive) and the GI50 [28] was 81.3 µM (inactive). For the same molecule, the GI50 [29] was 34.7 µM (inactive), the GI50 [54] was 66.4 µM (inactive) and the GI50 [30] was 30.9 µM (inactive). The GI50 [31] was 82.4 µM (inactive), the GI50 [32] was 35.1 µM (inactive) and the GI50 [33] was 38.4 µM (inactive). The GI50 [34] was 50.1 µM (inactive), the GI50 [55] was 64.4 µM (inactive) and the GI50 [35] was 49.5 µM (inactive). The GI50 [36] was 32.6 µM (inactive), the GI50 [37] was 69.7 µM (inactive) and the GI50 [38] was 51.1 µM (inactive).

Cc1ccc2c(=O)cc(-c3cccc(F)c3)[nH]c2n1 was tested, and the GI50 [1] was 0.0446 µM (active), the GI50 [2] was 0.052 µM (active) and the GI50 [3] was 0.0476 µM (active). For the same molecule, the GI50 [4] was 0.0514 µM (active), the GI50 [5] was 0.0348 µM (active) and the GI50 [6] was 0.0498 µM (active). The GI50 [39] was 0.0446 µM (active), the GI50 [7] was 0.0224 µM (active) and the GI50 [8] was 0.0504 µM (active). For the same molecule, the GI50 [9] was 0.0719 µM (active), the GI50 [10] was 0.0586 µM (active) and the GI50 [11] was 0.0406 µM (active). For the same molecule, the GI50 [12] was 0.0381 µM, the GI50 [56] was 0.0212 µM (active) and the GI50 [13] was 0.0655 µM (active). For the same molecule, the GI50 [40] was 0.9 µM (active), the GI50 [41] was 0.0359 µM (active) and the GI50 [42] was 0.0237 µM (active). The GI50 [43] was 0.0755 µM (active), the GI50 [44] was 0.0313 µM (active) and the GI50 [14] was 0.022 µM (active). For the same molecule, the GI50 [57] was 0.0518 µM (active), the GI50 [15] was 0.0361 µM (active) and the GI50 [45] was 0.0334 µM (active). For the same molecule, the GI50 [16] was 0.0845 µM (active), the GI50 [46] was 0.0111 µM (active) and the GI50 [17] was < 0.012 µM (active). For the same molecule, the GI50 [47] was 0.0542 µM (active), the GI50 [48] was 0.0379 µM (active) and the GI50 [18] was 0.0336 µM (active). The GI50 [49] was 0.0501 µM (active), the GI50 [19] was 0.0356 µM (active) and the GI50 [50] was 0.0188 µM (active). For the same molecule, the GI50 [20] was 0.0196 µM (active), the GI50 [21] was 0.0201 µM (active) and the GI50 [22] was 1.61 µM (inactive). For the same molecule, the GI50 [23] was 0.0564 µM (active), the GI50 [24] was 0.0638 µM (active) and the GI50 [25] was 0.0327 µM (active). The GI50 [51] was 0.0397 µM (active), the GI50 [52] was 0.0415 µM (active) and the GI50 [58] was 0.0678 µM (active). For the same molecule, the GI50 [26] was 0.0321 µM (active), the GI50 [27] was 0.0728 µM (active) and the GI50 [28] was 0.64 µM (active). For the same molecule, the GI50 [53] was 0.0398 µM (active), the GI50 [29] was 0.0206 µM (active) and the GI50 [54] was 0.0403 µM (active). The GI50 [30] was 0.0746 µM (active), the GI50 [31] was 0.153 µM (active) and the GI50 [32] was 0.0218 µM (active). For the same molecule, the GI50 [33] was 0.0224 µM (active), the GI50 [34] was 0.0251 µM (active) and the GI50 [55] was 1.94 µM (inactive). For the same molecule, the GI50 [35] was 0.0389 µM (active), the GI50 [36] was 0.0395 µM (active) and the GI50 [37] was 0.0461 µM (active).
